Experimental data published in patent publication US9539282B2, “Therapeutic use of hydrogen molecules” (MAX-PLANCK-GESELLSCHAFT ZUR FORDERUNG DER WISSENSCHAFTEN …, priority 2012, dated 2017).

Assays:
[1] = standard conditions (room temperature, standard air pressure); cited from earlier work
[2] = standard conditions, worked out from 0.8 mmol and 2 g per mole

## [HH] [hydrogen]
[1]
  maximum concentration at which hydrogen dissolves in water: about 0.8 mmol
[2]
  hydrogen per liter of water at maximum dissolution: about 1.6 mg per liter
